This passage reports IC50 results from US20040077651A1, “Remedies for cancer” (priority 2000, published 2004).

pIC50: −log10 of the molar value.

The assay concerns the target T1, Human type-X sPLA2 (Homo sapiens, UniProt O15496).
T1 construct: made in house; unpurified culture supernatant
T1 sequence (O15496 43-165): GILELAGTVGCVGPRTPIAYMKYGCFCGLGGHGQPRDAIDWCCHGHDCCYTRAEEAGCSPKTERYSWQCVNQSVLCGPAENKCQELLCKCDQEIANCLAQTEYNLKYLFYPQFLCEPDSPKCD
Kind of assay: Type-X sPLA2 inhibition test (chromogenic assay, diheptanoylthio PC). It is filed as biochemical. The note with it: culture supernatant of CHO cells expressing human type-X sPLA2, 30 min at 40° C., absorbance at 405 nm. An excerpt: cDNA sequence encoding human type-X sPLA2 (Cupillard et al., J. Biol. Chem, 1997, 272, 15745-15752) was inserted into the downstream region of the promoter of pSVL SV40 Late Promoter Expression Vector (Amersham Pharmacia Biotech Inc.) that is an expression vector for mammalian cells. The obtained expression vector was transfected into the host CHO cells with a LipofectAMINE reagent (Gibco BRL Inc.) according to the manufacture's instruction to obtain the CHO cells stably expressing human type-X sPLA2. The transfected cell was cultured in α-MEM medium containing 10% fetal calf serum for 3 days and its culture supernatant was used for the measurement of each enzyme activity.
In order to identify and evaluate an inhibitor of type-X sPLA2, the following chromogenic assay is utilized. This assay has been applied for high volume screening using a 96-well microtiterplate. A general explanation for this assay is described in “Analysis of Human Synovial Fluid Phospholipase A2 on Short Chain Phosphatidylcholine-Mixed Micelles: Development of a Spectrophotometric Assay Suitable for a Micortiterplate Reader” (Analytical Biochemistry, 204, pp 190-197, 1992 by Laure. J. Reynolds. Lori L. Hughes and Edward A. Dennis.
Test compounds (or solvent blank) were added according to the alignment of plates that had been previously set. Human type-X sPLA2 was incubated (30 min at 40° C. (15 μl/well)) with diheptanoylthio PC (1 mM) in the presence of Triton X-100 (0.3 mM) and 5,5′-dithiobis(2-nitrobenzoic acid) (125 μM) in Tris-HCl buffer (25 mM, pH 7.5) containing CaCl2 (10 mM), KCl (100 mM), and bovine serum albumin (1.0 mg/mL). The changes in the absorbance at 405 nm were measured and the inhibition activities were calculated.
The IC50 value was determined by plotting the log concentration of the above-mentioned compounds (1)-(19) with respect to their inhibition values within 10% to 90% inhibitory range.
What is called pIC50 is −log10 of the IC50, conventionally taken in molar units. As to `NC(=O)C1=CCCc2c1c1c(OCC(=O)O)cccn1c2Cc1ccccc1` [Compound 7], the pIC50 was 8.30. To `NC(=O)c1cccc2c1c1c(OCC(=O)O)cc(-c3ccco3)cc1n2Cc1ccccc1` [Compound 11] belongs 8.00; to `CCCc1c(C(=O)C(N)=O)c2c(OCC(=O)O)nc(C)cn2c1CCc1ccccc1` [Compound 6], 7.77.
